Article PMC9223267, “Serine hydroxymethyltransferase as a potential target of antibacterial agents acting synergistically with one-carbon metabolism-related inhibitors” (Communications Biology, 2022)
Several values for one entry are separate records, joined by “and”; a condition that tells them apart may be missing. Equal entries are not always repeated. Entries after “also recorded” stand apart in the source; their conditions may differ. Where two headings read alike, the source gives them in different places.

Experiments:
[1] = target: efmSHMT (Enterococcus faecium, UniProt I3U4H4, M1V); experiment: biochemical; format: binding; settings: 5 μM efmSHMT; 10 mM Gly and 100 μM Ser; Cheng-Prusoff
efmSHMT (Enterococcus faecium, UniProt I3U4H4, M1V), sequence (I3U4H4 whole entry M1V): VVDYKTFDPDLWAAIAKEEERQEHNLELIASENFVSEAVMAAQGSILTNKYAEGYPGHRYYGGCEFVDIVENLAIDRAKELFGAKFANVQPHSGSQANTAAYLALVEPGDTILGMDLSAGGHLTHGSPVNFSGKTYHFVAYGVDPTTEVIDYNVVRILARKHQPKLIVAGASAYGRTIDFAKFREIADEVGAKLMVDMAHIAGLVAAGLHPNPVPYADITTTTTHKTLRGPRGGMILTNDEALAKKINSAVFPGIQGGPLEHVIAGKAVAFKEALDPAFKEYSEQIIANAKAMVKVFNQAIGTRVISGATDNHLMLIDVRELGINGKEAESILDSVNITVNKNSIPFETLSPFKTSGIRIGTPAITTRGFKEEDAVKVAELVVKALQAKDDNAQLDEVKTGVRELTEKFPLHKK
Method: After adding Me-THF, the efmSHMT solution was incubated for 30 min at room temperature. The optical density at 500 and 600 nm (OD500 and OD600) were then measured using a nanodrop spectrophotometer[24],[25]. OD600 was used as the background. After detection, each concentration of inhibitor was added to the efmSHMT solution and incubated for 30 min at room temperature. OD500 and OD600 were measured. The relative OD500 intensity was calculated as relative OD500 = (OD500 – OD600)/(MAXOD500 – OD600), where MAXOD500 is the average OD500 value in the presence of 1000, 2000 and 4000 μM Me-THF without inhibitors. […] Here, IC50 is the concentration of inhibitor added to the efmSHMT solution and [Me-THF] is the EC50 in the presence of the inhibitor concentration. [EC50 without inhibitor] is the EC50 of Me-THF in the absence of the inhibitor.

[2] = system: Caski cells; experiment: Cell cytotoxicity assay (Cell Counting Kit-8, 5 days); format: cell-based, human; settings: with each cell line (Caski, Hep-2 and Calu-3)
Method: After serial dilution, 100 μL of FBS-containing medium including the cells was added to each well of the plate. […] All CC50 determining assays were conducted in duplicate or triplicate[39],[40].

[3] = system: E. faecium; experiment: Antibacterial activity evaluation (turbidity, OD600); format: cell-based, Enterococcus faecium (JCM5804); settings: Enterococcus faecium, E. faecium JCM5804
Method: (§1) E. faecium and E. faecalis were diluted to turbidity equivalents that matched 1.0 McFarland (McF) standard in distilled water (S. aureus and E. coli were also diluted to 0.5 McF), and additionally diluted 1:200 in Mueller–Hinton (MH) broth. The designated concentrations of the tested compounds were prepared by ten-fold serial dilutions directly in 96-well microtiter plates (IWAKI, Shizuoka, Japan), as previously described. […] The other compounds were serially diluted from 20 μM downwards (final concentration, 10 μM). […] Positive control wells included bacteria without any compound, and the negative control wells only contained MH broth. […] The optical density at 600 nm (OD600) was measured using a GloMax microtiter plate reader (Promega, WI, USA), and the EC50 values of each test compound and standard error were calculated by Microsoft Excel function, AVERAGE and STDEV/SQRT.

[4] = system: S. aureus; experiment: as above; format: cell-based, Staphylococcus aureus (ATCC29213); settings: Staphylococcus aureus, S. aureus ATCC29213
Method: as §1

[5] = system: E. faecium; experiment: Bacterial viability assay (Microbial Viability Assay Kit-WST, OD450); format: cell-based, Enterococcus faecium; settings: for Relative bacterial viability: single values
Method: Living E. faecium were determined using the Microbial Viability Assay Kit-WST (DOJINDO, Tokyo, Japan). […] Positive control wells included bacteria seeded into MH broth without compounds, and the negative control wells contained MH broth only. […] Five microlitres of the colouring reagent were added to each well of the 96-well plate every 2 h after starting incubation with each compound.

[6] = system: E. faecium; experiment: Antibacterial assay with an excess concentration of biomolecules (Ser, Gly, inosine, dT, FA); format: cell-based, Enterococcus faecium (JCM5804)
Method: as §1
The ratio of the control EC50 (no competitors added) to the experimental EC50 (competitors added) was calculated for each test substance.

[7] = system: efmSHMT; format: binding, Enterococcus faecium; settings: DSF; final drug concentration 50 μM
Method: Protein samples were prepared as 20 μL aliquots containing 0.1 mg/mL protein (efmSHMT/ecSHMT), 1 μL of the ligand in DMSO (final drug concentration, 50 μM) and 2% or 4% SYPRO Orange (Invitrogen, MA, USA). […] Melting points were evaluated as the half-point of the maximum intensity of each curve.

[8] = system: E. coli; experiment: Antibacterial activity evaluation (turbidity, OD600); format: cell-based, Escherichia coli (ATCC25922); settings: Escherichia coli, E. coli ATCC25922
Method: as §1

[9] = system: E. faecalis; experiment: as above; format: cell-based, Enterococcus faecalis (JCM7783); settings: Enterococcus faecalis, E. faecalis JCM7783
Method: as §1

[10] = read-out: pEC50 ± S.E. (converted)
[11] = Enterococcus faecium, JCM5804, E. faecium JCM5804, 1 mM Inosine, read-out: pEC50 ± S.E. (converted)
[12] = Enterococcus faecium, JCM5804, E. faecium JCM5804, 1 mM deoxythymidine, read-out: EC50
[13] = Enterococcus faecium, JCM5804, E. faecium JCM5804, 1 mM deoxythymidine, read-out: pEC50 ± S.E. (converted)
[14] = Enterococcus faecium, JCM5804, E. faecium JCM5804, 10 mM Glycine, read-out: EC50
[15] = Enterococcus faecium, JCM5804, E. faecium JCM5804, 10 mM Glycine, read-out: pEC50 ± S.E. (converted)
[16] = Enterococcus faecium, JCM5804, E. faecium JCM5804, 100 mM Serine, read-out: EC50
[17] = Enterococcus faecium, JCM5804, E. faecium JCM5804, 100 mM Serine, read-out: pEC50 ± S.E. (converted)
[18] = Enterococcus faecium, JCM5804, E. faecium JCM5804, 0.1 M folate, read-out: EC50
[19] = Enterococcus faecium, JCM5804, E. faecium JCM5804, 0.1 M folate, read-out: pEC50 ± S.E. (converted)

| Structure (SMILES) | selectivity index (S.I.): CC50 against each cell line / EC50 against E. faecium [2] | EC50 ([3]; read-out: EC50) | EC50 [3, 10] | EC50 ([4]; read-out: EC50) | EC50 [4, 10] | EC50 [6, 11] | EC50 [6, 12] | EC50 [6, 13] | EC50 [6, 14] | EC50 [6, 15] | EC50 [6, 16] | EC50 [6, 17] | EC50 [6, 18] | EC50 [6, 19] | EC50 ([8]; read-out: EC50) | EC50 [8, 10] | EC50 ([9]; read-out: EC50) | EC50 [9, 10] | further results |
| --- | --- | --- | --- | --- | --- | --- | --- | --- | --- | --- | --- | --- | --- | --- | --- | --- | --- | --- | --- |
| Cc1n[nH]c2c1C(c1cc(N3CCCC3)cc(C(F)(F)F)c1)(C(C)C)C(C#N)=C(N)O2 (centres unmarked) [SHMT-IN-2] | less selective than (+)-SHIN-1, TMP and PMX | 2900 nM | 3160 nM | ≥ 100000 nM | ≥ 100000 nM | 3160 nM | 2900 nM | 3160 nM | 3000 nM | 3160 nM | 4000 nM | 3980 nM | 2900 nM | 3160 nM | > 100000 nM | > 100000 nM | > 100000 nM | > 100000 nM | Ki [1]: did not change the OD500; also recorded: did not bind; Relative bacterial viability ([5]; 40 μM, 0 hours): 0.01862 and 0.0174 and 0.0205 and 0.01931 and 0.02646 and 0.02349 and 0.02966 and 0.03101; Relative bacterial viability ([5]; 40 μM, 2 hours): 0.03093 and 0.0302 and 0.02505 and 0.02814 and 0.02877 and 0.02998 and 0.036 and 0.03921; Relative bacterial viability ([5]; 40 μM, 6 hours): 0.3579 and 0.3453 and 0.3941 and 0.3482 and 0.392 and 0.3797 and 0.4394 and 0.4307; Relative bacterial viability ([5]; 40 μM, 8 hours): 0.4949 and 0.5317 and 0.4381 and 0.3998 and 0.3519 and 0.3235 and 0.4823 and 0.3754; Relative bacterial viability ([5]; 40 μM, 10 hours): 0.5237 and 0.542 and 0.4699 and 0.39 and 0.5132 and 0.4488 and 0.4691 and 0.4904; Relative bacterial viability ([5]; 40 μM, 12 hours): 0.55 and 0.5489 and 0.5001 and 0.5313 and 0.5571 and 0.5294 and 0.6254 and 0.5482; Relative bacterial viability ([5]; 80 μM, 0 hours): 0.02012 and 0.02269 and 0.02791 and 0.02552 and 0.02349 and 0.02305 and 0.03984 and 0.03245; Relative bacterial viability ([5]; 80 μM, 2 hours): 0.03305 and 0.03431 and 0.03897 and 0.0377 and 0.0302 and 0.03755 and 0.04307 and 0.03606; Relative bacterial viability ([5]; 80 μM, 4 hours): 0.03849 and 0.03773 and 0.03537 and 0.04204 and 0.0354 and 0.0391 and 0.04337 and 0.03653; Relative bacterial viability ([5]; 80 μM, 6 hours): 0.04463 and 0.04595 and 0.05326 and 0.05339 and 0.04373 and 0.04075 and 0.04467 and 0.04119; Relative bacterial viability ([5]; 80 μM, 8 hours): 0.04711 and 0.04935 and 0.05233 and 0.0524 and 0.04018 and 0.04838 and 0.04621 and 0.04757; Relative bacterial viability ([5]; 80 μM, 10 hours): 0.04986 and 0.05353 and 0.04783 and 0.04892; Relative bacterial viability ([5]; 80 μM, 12 hours): 0.04784 and 0.03996 and 0.04751 and 0.04436 and 0.04726 and 0.03481 and 0.04716 and 0.0494; EC50 (bacterial viability) ([5]; relative bacterial viability after 14 h incubation): weaker activity than the turbidity detection result; EC50 ([6]; E. faecium JCM5804, 0.1 M folate): independent of FA; EC50 ([6]; Enterococcus faecium, JCM5804, E. faecium JCM5804, 1 mM Inosine, read-out: EC50): 3100 nM; ΔTm (thermal stability of efmSHMT) [7]: did not stabilise efmSHMT significantly |
| COc1cc(Cc2cnc(N)nc2N)cc(OC)c1OC [TMP, trimethoprim] | high bacterial selectivity | 2.8 nM | 2.51 nM | 290 nM | 316 nM | 2.51 nM | 54000 nM | 50100 nM | 2.1 nM | 2 nM | 3.3 nM | 3.16 nM | 41 nM | 50.1 nM | 170 nM | 158 nM | 270 nM | 251 nM | Relative bacterial viability ([5]; 2 nM, 0 hours): 0.02108 and 0.02214 and 0.02363 and 0.02319 and 0.01396 and 0.01461 and 0.0211 and 0.02201; Relative bacterial viability ([5]; 2 nM, 2 hours): 0.03256 and 0.03276 and 0.0358 and 0.03793 and 0.02817 and 0.0276 and 0.03152 and 0.02983; Relative bacterial viability ([5]; 2 nM, 8 hours): 0.6778 and 0.6938 and 0.7383 and 0.6754 and 0.6268 and 0.6594 and 0.6905 and 0.6243; Relative bacterial viability ([5]; 2 nM, 10 hours): 0.7078 and 0.7215 and 0.7487 and 0.6774; Relative bacterial viability ([5]; 2 nM, 12 hours): 0.7931 and 0.8524 and 0.8435 and 0.6543 and 0.7061 and 0.7294 and 0.7396 and 0.7126; Relative bacterial viability ([5]; 2 nM, 14 hours): 0.8722 and 0.7867 and 0.9195 and 0.9126 and 0.8033 and 0.8796 and 0.8243 and 0.8853; Relative bacterial viability ([5]; 20 nM, 0 hours): 0.02896 and 0.02213 and 0.01772 and 0.01904 and 0.02117 and 0.02218 and 0.02462 and 0.0192; Relative bacterial viability ([5]; 20 nM, 2 hours): 0.03873 and 0.03054 and 0.0347 and 0.03215 and 0.02983 and 0.02843 and 0.03279 and 0.02955; Relative bacterial viability ([5]; 20 nM, 4 hours): 0.0705 and 0.06896 and 0.0607 and 0.07039 and 0.05304 and 0.06167 and 0.06352 and 0.06901; Relative bacterial viability ([5]; 20 nM, 6 hours): 0.09036 and 0.1064 and 0.1059 and 0.1127 and 0.1209 and 0.1443 and 0.152 and 0.1417; Relative bacterial viability ([5]; 20 nM, 8 hours): 0.1279 and 0.1203 and 0.1189 and 0.109 and 0.09529 and 0.09698 and 0.1178 and 0.11; Relative bacterial viability ([5]; 20 nM, 10 hours): 0.1127 and 0.1159 and 0.1045 and 0.09171 and 0.08771 and 0.09868 and 0.1124 and 0.1197; Relative bacterial viability ([5]; 20 nM, 12 hours): 0.09851 and 0.09831 and 0.1104 and 0.1131 and 0.09658 and 0.1085 and 0.1167 and 0.1091; EC50 ([5]; Enterococcus faecium, relative bacterial viability after 14 h incubation): 8.8 nM |
